Laboratory results from the supplement of paper PMC13207355.

What was measured:
Conditions in all cases: exposure time: 72 h
E13 [1] = patient-derived glioblastoma stem cells of classical subtype; assay: surviving fraction (nuclei count normalised to DMSO); higher = more cells surviving (less toxic)
E21 [2] = patient-derived glioblastoma stem cells of mesenchymal subtype; assay: as above
E28 [3] = patient-derived glioblastoma stem cells of classical subtype; assay: as above
E31 [4] = patient-derived glioblastoma stem cells of proneural subtype; assay: as above
E34 [5] = patient-derived glioblastoma stem cells of proneural subtype; assay: as above
E57 [6] = patient-derived glioblastoma stem cells of mesenchymal subtype; assay: as above
FT3469 [7] = normal neural stem cell line; assay: as above
E13 [8] = assay: phenotypic distance (Euclidean, principal components) from DMSO controls (arbitrary units); higher = stronger morphological change
E21 [9] = assay: as above
E28 [10] = assay: as above
E31 [11] = assay: as above
E34 [12] = assay: as above
E57 [13] = assay: as above
FT3469 [14] = assay: as above
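Wherever phenotypic distance (Euclidean, principal components) from DMSO controls is given: cell Painting imaging in 384-well plates, CellProfiler features reduced to at least 20 principal components, Euclidean distance versus same-plate DMSO vehicle wells (0.1% v/v), median over six images per well.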
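Wherever surviving fraction (nuclei count normalised to DMSO) is given: nuclei counted by high-content imaging of Hoechst-stained cells in laminin-coated 384-well plates, relative to 0.1% DMSO vehicle wells, with staurosporine as cell-death control.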

CC(C)C[C@H](NC(=O)[C@H](CCc1ccccc1)NC(=O)CN1CCOCC1)C(=O)N[C@@H](Cc1ccccc1)C(=O)N[C@@H](CC(C)C)C(=O)[C@@]1(C)CO1 [Carfilzomib]
Conditions	phenotypic distance	surviving fraction
E13 [1], 4.1 nM	–	0.0693
E13 [1], 12.3 nM	–	0.000925
E13 [1], 37 nM	–	0.00185
E13 [1], 111.1 nM	–	0.0037
E13 [1], 333.3 nM	–	0.00277
E13 [1], 1000 nM	–	0
E13 [1], 3000 nM	–	0
E13 [8], 4.1 nM	7.83	–
E13 [8], 12.3 nM	12.9	–
E13 [8], 37 nM	15.6	–
E13 [8], 111.1 nM	16.7	–
E13 [8], 333.3 nM	13.2	–
E13 [8], 1000 nM	18.4	–
E13 [8], 3000 nM	20.8	–
E21 [2], 4.1 nM	–	0.281
E21 [2], 12.3 nM	–	0.00694
E21 [2], 37 nM	–	0.00198
E21 [2], 111.1 nM	–	0.000991
E21 [2], 333.3 nM	–	0
E21 [2], 1000 nM	–	0.00297
E21 [2], 3000 nM	–	0.000991
E21 [9], 4.1 nM	6.32	–
E21 [9], 12.3 nM	12.1	–
E21 [9], 37 nM	18.5	–
E21 [9], 111.1 nM	17.9	–
E21 [9], 333.3 nM	24	–
E21 [9], 1000 nM	18.7	–
E21 [9], 3000 nM	17.1	–
E28 [3], 4.1 nM	–	0.177
E28 [3], 12.3 nM	–	0.0576
E28 [3], 37 nM	–	0.0811
E28 [3], 111.1 nM	–	0.0683
E28 [3], 333.3 nM	–	0.109
E28 [3], 1000 nM	–	0.0768
E28 [3], 3000 nM	–	0.16
E28 [10], 4.1 nM	3.34	–
E28 [10], 12.3 nM	5.12	–
E28 [10], 37 nM	6.26	–
E28 [10], 111.1 nM	5.31	–
E28 [10], 333.3 nM	5.36	–
E28 [10], 1000 nM	5.52	–
E28 [10], 3000 nM	5.18	–
E31 [4], 4.1 nM	–	0.0683
E31 [4], 12.3 nM	–	0.00163
E31 [4], 37 nM	–	0.00651
E31 [4], 111.1 nM	–	0.00163
E31 [4], 333.3 nM	–	0.00814
E31 [4], 1000 nM	–	0.013
E31 [4], 3000 nM	–	0.0195
E31 [11], 4.1 nM	8.54	–
E31 [11], 12.3 nM	12.7	–
E31 [11], 37 nM	11.3	–
E31 [11], 111.1 nM	12.1	–
E31 [11], 333.3 nM	9.53	–
E31 [11], 1000 nM	9.35	–
E31 [11], 3000 nM	8.45	–
E34 [5], 4.1 nM	–	0.262
E34 [5], 12.3 nM	–	0.0542
E34 [5], 37 nM	–	0.035
E34 [5], 111.1 nM	–	0.0297
E34 [5], 333.3 nM	–	0.042
E34 [5], 1000 nM	–	0.035
E34 [5], 3000 nM	–	0.0455
E34 [12], 4.1 nM	5.47	–
E34 [12], 12.3 nM	11.7	–
E34 [12], 37 nM	12.5	–
E34 [12], 111.1 nM	13.8	–
E34 [12], 333.3 nM	15.8	–
E34 [12], 1000 nM	14.1	–
E34 [12], 3000 nM	14.9	–
E57 [6], 4.1 nM	–	0.0418
E57 [6], 12.3 nM	–	0.00509
E57 [6], 37 nM	–	0.00509
E57 [6], 111.1 nM	–	0.00305
E57 [6], 333.3 nM	–	0.00509
E57 [6], 1000 nM	–	0.00407
E57 [6], 3000 nM	–	0.00458
E57 [13], 4.1 nM	12.2	–
E57 [13], 12.3 nM	12.4	–
E57 [13], 37 nM	11.4	–
E57 [13], 111.1 nM	12.8	–
E57 [13], 333.3 nM	8.61	–
E57 [13], 1000 nM	14.1	–
E57 [13], 3000 nM	13.2	–
FT3469 [7], 4.1 nM	–	0.224
FT3469 [7], 12.3 nM	–	0.158
FT3469 [7], 37 nM	–	0.124
FT3469 [7], 111.1 nM	–	0.095
FT3469 [7], 333.3 nM	–	0.0806
FT3469 [7], 1000 nM	–	0.112
FT3469 [7], 3000 nM	–	0.0863
FT3469 [14], 4.1 nM	5.32	–
FT3469 [14], 12.3 nM	7.47	–
FT3469 [14], 37 nM	7.85	–
FT3469 [14], 111.1 nM	6.13	–
FT3469 [14], 333.3 nM	7.43	–
FT3469 [14], 1000 nM	6.91	–
FT3469 [14], 3000 nM	7.23	–

CCCCCCNC(=O)n1cc(F)c(=O)[nH]c1=O [Carmofur]
Conditions	phenotypic distance	surviving fraction
E13 [1], 4.1 nM	–	0.99
E13 [1], 12.3 nM	–	1.04
E13 [1], 37 nM	–	0.909
E13 [1], 111.1 nM	–	0.986
E13 [1], 333.3 nM	–	0.963
E13 [1], 1000 nM	–	1.05
E13 [1], 3000 nM	–	0.877
E13 [8], 4.1 nM	0.618	–
E13 [8], 12.3 nM	0.582	–
E13 [8], 37 nM	0.585	–
E13 [8], 111.1 nM	0.446	–
E13 [8], 333.3 nM	0.744	–
E13 [8], 1000 nM	0.529	–
E13 [8], 3000 nM	0.786	–
E21 [2], 4.1 nM	–	0.952
E21 [2], 12.3 nM	–	0.91
E21 [2], 37 nM	–	0.9
E21 [2], 111.1 nM	–	0.957
E21 [2], 333.3 nM	–	0.927
E21 [2], 1000 nM	–	0.955
E21 [2], 3000 nM	–	0.877
E21 [9], 4.1 nM	0.484	–
E21 [9], 12.3 nM	0.616	–
E21 [9], 37 nM	0.756	–
E21 [9], 111.1 nM	0.906	–
E21 [9], 333.3 nM	0.649	–
E21 [9], 1000 nM	0.744	–
E21 [9], 3000 nM	1.09	–
E28 [3], 4.1 nM	–	1.02
E28 [3], 12.3 nM	–	1.19
E28 [3], 37 nM	–	0.916
E28 [3], 111.1 nM	–	0.949
E28 [3], 333.3 nM	–	1.1
E28 [3], 1000 nM	–	1.26
E28 [3], 3000 nM	–	0.731
E28 [10], 4.1 nM	0.928	–
E28 [10], 12.3 nM	1.13	–
E28 [10], 37 nM	1.26	–
E28 [10], 111.1 nM	0.901	–
E28 [10], 333.3 nM	0.775	–
E28 [10], 1000 nM	1.21	–
E28 [10], 3000 nM	1.55	–
E31 [4], 4.1 nM	–	0.889
E31 [4], 12.3 nM	–	0.903
E31 [4], 37 nM	–	0.826
E31 [4], 111.1 nM	–	0.961
E31 [4], 333.3 nM	–	0.894
E31 [4], 1000 nM	–	1.07
E31 [4], 3000 nM	–	0.875
E31 [11], 4.1 nM	0.818	–
E31 [11], 12.3 nM	0.955	–
E31 [11], 37 nM	1.02	–
E31 [11], 111.1 nM	0.782	–
E31 [11], 333.3 nM	0.838	–
E31 [11], 1000 nM	0.811	–
E31 [11], 3000 nM	0.874	–
E34 [5], 4.1 nM	–	0.974
E34 [5], 12.3 nM	–	0.829
E34 [5], 37 nM	–	0.841
E34 [5], 111.1 nM	–	0.884
E34 [5], 333.3 nM	–	0.928
E34 [5], 1000 nM	–	1
E34 [5], 3000 nM	–	0.889
E34 [12], 4.1 nM	3.48	–
E34 [12], 12.3 nM	1.19	–
E34 [12], 37 nM	0.943	–
E34 [12], 111.1 nM	1.13	–
E34 [12], 333.3 nM	0.621	–
E34 [12], 1000 nM	0.627	–
E34 [12], 3000 nM	0.693	–
E57 [6], 4.1 nM	–	0.882
E57 [6], 12.3 nM	–	0.903
E57 [6], 37 nM	–	0.919
E57 [6], 111.1 nM	–	0.922
E57 [6], 333.3 nM	–	1.02
E57 [6], 1000 nM	–	0.954
E57 [6], 3000 nM	–	0.85
E57 [13], 4.1 nM	0.989	–
E57 [13], 12.3 nM	0.918	–
E57 [13], 37 nM	0.681	–
E57 [13], 111.1 nM	0.66	–
E57 [13], 333.3 nM	0.538	–
E57 [13], 1000 nM	0.74	–
E57 [13], 3000 nM	1.04	–
FT3469 [7], 4.1 nM	–	0.763
FT3469 [7], 12.3 nM	–	0.995
FT3469 [7], 37 nM	–	0.811
FT3469 [7], 111.1 nM	–	0.832
FT3469 [7], 333.3 nM	–	0.955
FT3469 [7], 1000 nM	–	0.915
FT3469 [7], 3000 nM	–	0.649
FT3469 [14], 4.1 nM	0.889	–
FT3469 [14], 12.3 nM	2.05	–
FT3469 [14], 37 nM	1.22	–
FT3469 [14], 111.1 nM	3.24	–
FT3469 [14], 333.3 nM	0.832	–
FT3469 [14], 1000 nM	0.844	–
FT3469 [14], 3000 nM	1.47	–
